Assay results as given in PubChem BioAssay AID1671268.

Molecular target: Receptor-type tyrosine-protein kinase FLT3 (Homo sapiens) (UniProt P36888)
Experiment: FLT3 kinase inhibitors, dose response, biochemical, Z'-LYTE, FRET, protease-coupled, direct format (AID 1671268)
Conditions: recombinant FLT3, Z'-LYTE FRET peptide phosphorylation

Receptor-type tyrosine-protein kinase FLT3 (Homo sapiens), sequence (P36888 whole entry, looked up): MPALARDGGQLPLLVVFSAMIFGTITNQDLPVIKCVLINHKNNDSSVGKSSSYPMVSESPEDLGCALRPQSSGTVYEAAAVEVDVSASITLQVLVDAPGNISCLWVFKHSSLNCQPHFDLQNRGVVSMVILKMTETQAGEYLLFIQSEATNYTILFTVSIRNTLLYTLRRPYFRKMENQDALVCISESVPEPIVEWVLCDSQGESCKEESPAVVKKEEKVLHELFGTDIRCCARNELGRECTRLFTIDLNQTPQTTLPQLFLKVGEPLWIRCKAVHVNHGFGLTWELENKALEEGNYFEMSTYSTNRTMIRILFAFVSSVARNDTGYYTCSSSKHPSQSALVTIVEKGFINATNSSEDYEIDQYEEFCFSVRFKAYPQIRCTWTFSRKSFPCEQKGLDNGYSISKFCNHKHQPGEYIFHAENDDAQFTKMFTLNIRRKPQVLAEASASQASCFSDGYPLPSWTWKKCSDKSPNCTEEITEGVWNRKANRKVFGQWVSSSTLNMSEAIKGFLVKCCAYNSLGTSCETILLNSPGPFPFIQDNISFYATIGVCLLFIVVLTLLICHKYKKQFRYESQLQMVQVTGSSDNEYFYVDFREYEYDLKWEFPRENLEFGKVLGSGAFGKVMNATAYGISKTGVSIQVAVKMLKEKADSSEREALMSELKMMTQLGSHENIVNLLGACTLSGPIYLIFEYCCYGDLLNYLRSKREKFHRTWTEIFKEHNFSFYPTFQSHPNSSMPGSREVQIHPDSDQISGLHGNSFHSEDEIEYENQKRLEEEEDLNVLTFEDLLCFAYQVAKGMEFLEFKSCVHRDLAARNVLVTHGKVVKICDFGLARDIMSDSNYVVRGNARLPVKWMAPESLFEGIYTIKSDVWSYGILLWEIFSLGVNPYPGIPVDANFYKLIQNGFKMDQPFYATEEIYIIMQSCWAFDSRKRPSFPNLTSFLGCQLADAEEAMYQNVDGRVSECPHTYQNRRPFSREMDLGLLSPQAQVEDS

SMILES: COc1cc2ncnc(Nc3cccc(Cl)c3)c2cc1OC
- IC50: 2940 nM
